Assay results reported in patent publication US9545105B2, “1-(heterocyclic carbonyl) piperidines” (BAYER INTELLECTUAL PROPERTY GMBH, priority 2010, dated 2017).

Legend:
Phakopsora pachyrhizi = assay: In vivo protective test on Phakopsora pachyrhizi (soybeans); conditions: 250 ppm of active ingredient, evaluated 11 days after inoculation
Venturia inaequalis = assay: In vivo preventive test on Venturia inaequalis (apple scab); conditions: 100 ppm of active ingredient, evaluated 10 days after inoculation
Protocol: Solvent: 24.5 parts by weight of acetone • 24.5 parts by weight of N,N-dimethylacetamide Emulsifier: 1 part by weight of alkylaryl polyglycol ether To produce a suitable preparation of active compound, 1 part by weight of active compound is mixed with the stated amounts of solvent and emulsifier, and the concentrate is diluted with water to the desired concentration. To test for preventive activity, young plants are sprayed with the preparation of active compound at the stated rate of application. After the spray coating has dried on, the plants are inoculated with an aqueous conidia suspension of the causal agent of apple scab (Venturia inaequalis) and then remain for 1 day in an incubation cabinet at approximately 20° C. and a relative atmospheric humidity of 100%. The plants are then placed in a greenhouse at approximately 21° C. and a relative atmospheric humidity of approximately 90%. The test is evaluated 10 days after the inoculation. 0% means an efficacy which corresponds to that of the untreated control, while an efficacy of 100% means that no disease is observed.

[1] = system: Fusarium nivale (var. majus); assay: In vivo preventive test on Fusarium nivale (wheat); conditions: 500 ppm of active ingredient, evaluated 5 days after inoculation
Protocol: Solvent: 49 parts by weight of N,N-dimethylacetamide Emulsifier: 1 part by weight of alkylaryl polyglycol ether To produce a suitable preparation of active compound, 1 part by weight of active compound or active compound combination is mixed with the stated amounts of solvent and emulsifier, and the concentrate is diluted with water to the desired concentration. To test for preventive activity, young plants are sprayed with the preparation of active compound or active compound combination at the stated rate of application. After the spray coating has been dried, the plants are slightly injured by using a sandblast and afterwards they are sprayed with a conidia suspension of Fusarium nivale (var. majus). The plants are placed in the greenhouse under a translucent incubation cabinet at a temperature of approximately 10° C. and a relative atmospheric humidity of approximately 100%. The test is evaluated 5 days after the inoculation. 0% means an efficacy which corresponds to that of the untreated control, while an efficacy of 100% means that no disease is observed.

Alternaria solani = assay: In vivo preventive test on Alternaria solani (tomato); conditions: 500 ppm of active ingredient, evaluated 7 days after inoculation
Procedure, shortened: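 Young tomato plants were sprayed preventively with compound in DMF/alkylarylpolyglycolether diluted in water, then inoculated one day later with A. solani spores. Incubation was 1 day at about 22 °C and 100% RH, then about 20 °C and 96% RH. Efficacy was scored 7 days after inoculation (0% = untreated control, 100% = no disease).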

Septoria tritici = assay: In vivo preventive test on Septoria tritici (wheat); conditions: 500 ppm of active ingredient, evaluated 21 days after inoculation
Protocol: Solvent: 49 parts by weight of N,N-dimethylacetamide Emulsifier: 1 part by weight of alkylaryl polyglycol ether To produce a suitable preparation of active compound, 1 part by weight of active compound or active compound combination is mixed with the stated amounts of solvent and emulsifier, and the concentrate is diluted with water to the desired concentration. To test for preventive activity, young plants are sprayed with the preparation of active compound or active compound combination at the stated rate of application. After the spray coating has been dried, the plants are sprayed with a spore suspension of Septoria tritici. The plants remain for 48 hours in an incubation cabinet at approximately 20° C. and a relative atmospheric humidity of approximately 100% and afterwards for 60 hours at approximately 15° C. in a translucent incubation cabinet at a relative atmospheric humidity of approximately 100%. The plants are placed in the greenhouse at a temperature of approximately 15° C. and a relative atmospheric humidity of approximately 80%. The test is evaluated 21 days after the inoculation. 0% means an efficacy which corresponds to that of the untreated control, while an efficacy of 100% means that no disease is observed.

Compound	Efficacy (Phakopsora pachyrhizi) [%]	Efficacy (Venturia inaequalis) [%]	Efficacy [1] [%]	Efficacy (Alternaria solani) [%]	Efficacy (Septoria tritici) [%]
Cc1cc(C)cc(C2CCCCN2C(=O)c2c(C)nn(C)c2F)c1 (stereo not shown) [Example 10]	98	100	88	90	70
CCc1nn(C)c(F)c1C(=O)N1CCCCC1c1cc(C)cc(C)c1 (stereo not shown) [Example 11]	96	100	83	100	100
CCc1nn(C)c(F)c1C(=O)N1CCCCC1c1ccc(Cl)cc1 (stereo not shown) [Example 54]		98	71	95	100
CCC(c1ccccc1)C1CCCCN1C(=O)c1c(C(F)F)nn(C)c1F (stereo not shown) [Example 136]		100	86	100	100
CCC(c1ccccc1)C1CCCCN1C(=S)c1c(C(F)F)nn(C)c1F (stereo not shown) [Example 140]		100	71	100	100
